Results reported in ChEMBL document CHEMBL1201862, “PubChem BioAssay data set” (2004).
Several values for one entry are separate records, joined by “and”; a condition that tells them apart may be missing. Identical values can stand only once.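 Protocol summary: plate cells (96-well), add compound at 5 concentrations, incubate 48 h, interpolate endpoints linearly. GI50 is the concentration that inhibits growth by half.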 Activity calls are given as the source filed them. No stated cut-off is given here; in the data, active = GI50 up to about 1.1 µM and inactive = higher.

What was measured:
Experiment in all cases: NCI-60 cell line screen, 48 h
[1] = test system: NCI-H23
[2] = test system: DU-145
[3] = test system: HCT-116
[4] = test system: HT-29
[5] = test system: CCRF-CEM
[6] = test system: MDA-N
[7] = test system: EKVX
[8] = test system: OVCAR-5
[9] = test system: SF-295
[10] = test system: OVCAR-8
[11] = test system: SF-539
[12] = test system: CAKI-1
[13] = test system: SR
[14] = test system: SNB-75
[15] = test system: UACC-62
[16] = test system: HL-60
[17] = test system: SK-MEL-2
[18] = test system: SK-MEL-28
[19] = test system: HOP-92
[20] = test system: OVCAR-4

Compound	GI50 [1]	GI50 [2]	GI50 [3]	GI50 [4]	GI50 [5]	GI50 [6]	GI50 [7]	GI50 [8]	GI50 [9]	GI50 [10]	GI50 [11]	GI50 [12]	GI50 [13]	GI50 [14]	GI50 [15]	GI50 [16]	GI50 [17]	GI50 [18]	GI50 [19]	GI50 [20]
CCCC(C)NC(=O)c1ccc(N(C)Cc2cnc3nc(N)nc(N)c3n2)cc1 (stereo not drawn)	29.4 µM (inactive)	27.2 µM (inactive)	5.16 µM (inactive)	17.6 µM (inactive)	26.2 µM (inactive)	14.6 µM (inactive)	56.9 µM (inactive)	29.3 µM (inactive)	27.6 µM (inactive)	14.9 µM (inactive)	11 µM (inactive)	34 µM (inactive)	17.6 µM (inactive)	24.4 µM (inactive)	6.3 µM (inactive)	16.4 µM (inactive)	21.8 µM (inactive)	18.5 µM (inactive)		
COCC12CCC(OC)C34C5CC6(O)C(OC)CC(OC(C)=O)(C5C6OC(=O)c5ccccc5)C(C(OC)C13)C4N(C)C2 (stereo not drawn)	> 100 µM (inactive)	> 100 µM (inactive)	> 100 µM (inactive)	> 100 µM (inactive)	> 100 µM (inactive)	> 100 µM (inactive)	> 100 µM (inactive)	> 100 µM (inactive)	> 100 µM (inactive)	> 100 µM (inactive)	> 100 µM (inactive)	> 100 µM (inactive)	85.3 µM (inactive)		> 100 µM (inactive)	83.8 µM (inactive)	> 100 µM (inactive)	> 100 µM (inactive)	> 100 µM (inactive)	> 100 µM (inactive)
O=C(C[N+]12CN3CN(CN(C3)C1)C2)c1ccc(-c2ccccc2)cc1	23.3 µM (inactive)	17.6 µM (inactive)	18.8 µM (inactive)	22.5 µM (inactive)	1.71 µM (inactive)	21.8 µM (inactive)	19.8 µM (inactive)	18.6 µM (inactive)	19.8 µM (inactive)	32 µM (inactive)		43.9 µM (inactive)	3.2 µM (inactive)	19.7 µM (inactive)	16.1 µM (inactive)		18.3 µM (inactive)	17.6 µM (inactive)	33.5 µM (inactive)	51.4 µM (inactive)
Cc1ccc2c(c1)nc(N)n[n+]2[O-]	> 100 µM (inactive)	> 100 µM (inactive)	> 100 µM (inactive)	> 100 µM (inactive)	> 100 µM (inactive)	> 100 µM (inactive)	> 100 µM (inactive)	> 100 µM (inactive)	> 100 µM (inactive)	> 100 µM (inactive)	> 100 µM (inactive)	> 100 µM (inactive)	> 100 µM (inactive)	85.9 µM (inactive)	> 100 µM (inactive)	> 100 µM (inactive)	> 100 µM (inactive)	> 100 µM (inactive)		> 100 µM (inactive)
COc1ccc2c(C(=O)c3c(C)n(CCN4CCOCC4)c4ccccc34)cccc2c1	18.8 µM (inactive)	38 µM (inactive)	25.5 µM (inactive)	21 µM (inactive)	2.77 µM (inactive)	17.9 µM (inactive)	31.6 µM (inactive)	> 100 µM (inactive)	16.8 µM (inactive)	18.8 µM (inactive)	84.3 µM (inactive)	59 µM (inactive)	19.2 µM (inactive)		18.2 µM (inactive)	4.93 µM (inactive)	21.3 µM (inactive)	> 100 µM (inactive)	19.8 µM (inactive)	21.2 µM (inactive)
Cc1cc(Cl)nc2ccc(Cc3ccc4nc(Cl)cc(C)c4c3)cc12	44.6 µM (inactive)	> 100 µM (inactive)	22.8 µM (inactive)	68.5 µM (inactive)	> 100 µM (inactive)	47.3 µM (inactive)	44.3 µM (inactive)	> 100 µM (inactive)	22 µM (inactive)	28.6 µM (inactive)	12.6 µM (inactive)	39.8 µM (inactive)	85.3 µM (inactive)	3.3 µM (inactive)	51.6 µM (inactive)		47.5 µM (inactive)	> 100 µM (inactive)	43.1 µM (inactive)	34.8 µM (inactive)
C=CCn1c(S)nnc1C12CC3CC(CC(C3)C1)C2	94.4 µM (inactive)	69.3 µM (inactive)	46.1 µM (inactive)	50.1 µM (inactive)	20.1 µM (inactive)	45.4 µM (inactive)		> 100 µM (inactive)	41.3 µM (inactive)	92.9 µM (inactive)	> 100 µM (inactive)		1.51 µM (inactive)	> 100 µM (inactive)	90.8 µM (inactive)	17.2 µM (inactive)	67.8 µM (inactive)	> 100 µM (inactive)		58.7 µM (inactive)
COCC1OC(Sc2ccccc2)C(O)C(OC)C1OC (stereo not drawn)	> 100 µM (inactive)	> 100 µM (inactive)	> 100 µM (inactive)	> 100 µM (inactive)	> 100 µM (inactive) and 52.4 µM (inactive)	> 100 µM (inactive)	> 100 µM (inactive)	> 100 µM (inactive)	> 100 µM (inactive)	> 100 µM (inactive)	> 100 µM (inactive)	> 100 µM (inactive)	> 100 µM (inactive)		> 100 µM (inactive)	> 100 µM (inactive)	> 100 µM (inactive)	> 100 µM (inactive)		> 100 µM (inactive)
OCCCCn1cc(Cn2ncc3c(SCc4ccccc4)ncnc32)nn1	54.2 µM (inactive)	58.5 µM (inactive)	33.6 µM (inactive)	40.5 µM (inactive)	45.5 µM (inactive)	15.7 µM (inactive)	30.6 µM (inactive)	> 100 µM (inactive)	28.7 µM (inactive)	58.3 µM (inactive)	43.2 µM (inactive)	31 µM (inactive)	27.7 µM (inactive)	38.7 µM (inactive)	44.5 µM (inactive)		76.7 µM (inactive)	51.2 µM (inactive)	> 100 µM (inactive)	28.9 µM (inactive)
COC(O)C(=O)c1c2c(cc3c1CCC3)CCC2 (stereo not drawn)	> 100 µM (inactive)	> 100 µM (inactive)	> 100 µM (inactive)	> 100 µM (inactive)	55 µM (inactive)	> 100 µM (inactive)	> 100 µM (inactive)	> 100 µM (inactive)	> 100 µM (inactive)	> 100 µM (inactive)	> 100 µM (inactive)	> 100 µM (inactive)	66.2 µM (inactive)	> 100 µM (inactive)	> 100 µM (inactive)	22.6 µM (inactive)	> 100 µM (inactive)	> 100 µM (inactive)		> 100 µM (inactive)
CC(N/N=C(\S)N1CCCCCC1)c1cccnn1 (stereo not drawn)	0.254 µM (active)	0.579 µM (active)	0.325 µM (active)	0.483 µM (active)	0.112 µM (active)	0.684 µM (active)	0.27 µM (active)	0.316 µM (active)	0.403 µM (active)	0.239 µM (active)	0.194 µM (active)	0.395 µM (active)	0.132 µM (active)	1.75 µM (inactive)	0.264 µM (active)	0.114 µM (active)	1.27 µM (inactive)	0.482 µM (active)		0.348 µM (active)
CN(C)CCNc1nc(-c2ccc3ccccc3c2)nc2[nH]cnc12	11.7 µM (inactive)	10.6 µM (inactive)	8.83 µM (inactive)	3.84 µM (inactive)	9.27 µM (inactive)	10.7 µM (inactive)	4.55 µM (inactive)	13.1 µM (inactive)	13.7 µM (inactive)	10.8 µM (inactive)		4.89 µM (inactive)	2.88 µM (inactive)	1.1 µM (active)	10.8 µM (inactive)	3.93 µM (inactive)	14.6 µM (inactive)	13.6 µM (inactive)		10.7 µM (inactive)
O[C@@H]1C[C@@H]2N[C@@](O)(C[C@@H]2O)[C@H]1O	> 100 µM (inactive)	> 100 µM (inactive)	> 100 µM (inactive)	> 100 µM (inactive)	> 100 µM (inactive)	> 100 µM (inactive)	> 100 µM (inactive)	> 100 µM (inactive)	> 100 µM (inactive)	> 100 µM (inactive)	> 100 µM (inactive)		> 100 µM (inactive)	84.3 µM (inactive)	> 100 µM (inactive)	> 100 µM (inactive)		> 100 µM (inactive)	> 100 µM (inactive)	> 100 µM (inactive)
O=c1[nH]nc(-c2ccc3ccccc3c2)[nH]1	> 100 µM (inactive)	> 100 µM (inactive)	> 100 µM (inactive)	> 100 µM (inactive)	> 100 µM (inactive)	> 100 µM (inactive)	0.282 µM (active)	> 100 µM (inactive)	45.5 µM (inactive)	> 100 µM (inactive)	> 100 µM (inactive)	> 100 µM (inactive)	45.1 µM (inactive)	22.9 µM (inactive)	21 µM (inactive)	> 100 µM (inactive)	> 100 µM (inactive)	> 100 µM (inactive)		> 100 µM (inactive)
O=C1CCCCCCCCCCC1CCCCCBr (stereo not drawn)	24.4 µM (inactive)	28.7 µM (inactive)	17 µM (inactive)	25.9 µM (inactive)	17 µM (inactive)	31.8 µM (inactive)	41.7 µM (inactive)	25.1 µM (inactive)	34.4 µM (inactive)	31.8 µM (inactive)	22.8 µM (inactive)	31.2 µM (inactive)	24.7 µM (inactive)	16.3 µM (inactive)	31.1 µM (inactive)		16.9 µM (inactive)	19.9 µM (inactive)	18.4 µM (inactive)	16.9 µM (inactive)
